In patent publication US20250357519A1, “APPLICATIONS OF O2-INSENSITIVE FORMATE DEHYDROGENASE” (UNIVERSITY OF MARYLAND, BALTIMORE, priority 2022, published 2025):

Columns and labels:
[1] = molecular target: T1, Desulfovibrio vulgaris Hildenborough (DvH) FDH2, recombinant Strep-tag II-tagged (FDH2^Rec), large subunit DVU2482 SEQ ID NO: 31, small subunit DVU2481 SEQ ID N (Nitratidesulfovibrio vulgaris, UniProt Q728X0); experiment: Inhibition of PES/DCPIP reduction by DvH-FDH2; type: biochemical; set-up: some rows (FDH2^WT, da Silva et al.) are the native enzyme; details: anaerobic and aerobic
T1 sequence (Q728X0 36-1003): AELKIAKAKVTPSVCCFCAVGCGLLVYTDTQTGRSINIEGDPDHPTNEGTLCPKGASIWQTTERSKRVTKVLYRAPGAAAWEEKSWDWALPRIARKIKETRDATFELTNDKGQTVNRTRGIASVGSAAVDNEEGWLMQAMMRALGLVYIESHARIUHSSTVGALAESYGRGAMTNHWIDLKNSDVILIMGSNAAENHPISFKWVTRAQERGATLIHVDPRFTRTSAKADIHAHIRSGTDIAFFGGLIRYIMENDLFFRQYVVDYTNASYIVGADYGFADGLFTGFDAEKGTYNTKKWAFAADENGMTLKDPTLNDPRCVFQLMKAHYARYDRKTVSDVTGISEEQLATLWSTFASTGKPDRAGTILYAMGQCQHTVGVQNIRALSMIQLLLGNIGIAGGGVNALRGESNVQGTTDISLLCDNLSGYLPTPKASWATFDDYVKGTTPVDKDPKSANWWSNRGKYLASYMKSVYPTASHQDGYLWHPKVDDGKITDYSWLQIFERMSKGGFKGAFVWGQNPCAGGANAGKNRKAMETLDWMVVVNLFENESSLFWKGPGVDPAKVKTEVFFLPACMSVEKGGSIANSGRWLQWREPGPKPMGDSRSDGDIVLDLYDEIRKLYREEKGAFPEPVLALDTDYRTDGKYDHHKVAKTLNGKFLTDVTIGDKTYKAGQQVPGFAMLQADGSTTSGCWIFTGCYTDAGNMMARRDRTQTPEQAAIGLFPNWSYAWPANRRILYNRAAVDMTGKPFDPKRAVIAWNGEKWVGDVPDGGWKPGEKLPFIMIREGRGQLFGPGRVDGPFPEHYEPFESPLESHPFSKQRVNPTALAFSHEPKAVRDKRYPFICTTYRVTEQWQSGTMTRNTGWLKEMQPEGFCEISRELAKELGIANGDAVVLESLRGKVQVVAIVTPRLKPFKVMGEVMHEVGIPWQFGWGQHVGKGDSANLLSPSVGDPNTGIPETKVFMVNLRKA
T1 sequence (Q728X1 1-260 partner): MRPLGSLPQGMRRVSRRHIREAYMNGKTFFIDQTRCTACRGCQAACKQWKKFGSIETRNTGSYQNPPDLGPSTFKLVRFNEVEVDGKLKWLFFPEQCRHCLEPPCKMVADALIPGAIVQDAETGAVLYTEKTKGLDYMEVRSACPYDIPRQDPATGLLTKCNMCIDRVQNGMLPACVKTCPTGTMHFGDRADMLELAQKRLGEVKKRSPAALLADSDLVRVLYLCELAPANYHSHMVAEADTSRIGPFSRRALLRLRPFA
Protocol: FIG. 22. Effect of sodium azide on PES/DCPIP reduction by DvH-FDH2. Panel (A) illustrates raw anaerobic kinetics, Panel (B) illustrates data from Panel (A) converted to reduced DCPIP concentration, Panel (C) illustrates 4-parameter sigmoidal fit of Panel (B), Panel (D) illustrates aerobic raw traces, Panel (E) illustrates data from Panel (D) converted to reduced DCPIP concentration, and Panel (F) illustrates a 4-parameter sigmoidal fit of […]. IC50 values were in the range of 0.8 mM.
FIG. 23. Effect of sodium nitrate on PES/DCPTP reduction by DvH-FDH2. Panel (A) illustrates raw anaerobic kinetics, Panel (B) illustrates data from Panel (A) converted to reduced DCPTP concentration, Panel (C) illustrates raw aerobic kinetics, and Panel (D) illustrates data from Panel (C) converted to reduced DCPTP concentration.
To test this hypothesis, activity assays were independently pursued with the PES/DCPIP pair. As has been observed for other dehydrogenases^91, PES served as an efficient electron acceptor for DvH-FDH2 (FIG. 19(A)). […]
In this dye-linked assay, PES (Em,7=+65 mV) serves as the primary electron acceptor. […] Assays were performed using a UV-2600i spectrophotometer (Shimadzu Life Sciences) equipped with T2 Peltier/stirrer accessory (Quantum) and monitored at 600 nm. […]

DvH-FDH2 = DvH-FDH2 (Nitratidesulfovibrio vulgaris (Desulfovibrio vulgaris Hildenborough), UniProt Q728X0); type: biochemical

O=[N+]([O-])[O-].[Na+] [nitrate, sodium nitrate]
inhibition relative to azide [1]: far less effective | Inhibition of DvH-FDH2 compared with azide (DvH-FDH2): far less effective
